Reference: PMC3216401 (Antiviral research, 2011)
Where two headings read alike, the source gives them in different places.

Tests used:
[1] = test system: A/Hong Kong/2369/2009 (H1N1) oseltamivir resistant; test: microbe, parasite or virus in culture; conditions: Influenza A virus, H1N1, MDCK, read-out: IC50, Neutral Red Uptake Assay
[2] = test system: A/Hong Kong/2369/2009 (H1N1) oseltamivir resistant
[3] = test system: A/Hong Kong/2369/2009 (H1N1) oseltamivir resistant; test: microbe, parasite or virus in culture; conditions: Influenza A virus, H1N1, MDCK, read-out: IC50, Visual Assay
[4] = test system: A/Hong Kong/2369/2009 (H1N1) oseltamivir resistant; remark: listed apart in the source
[5] = test system: A/Hong Kong/2369/2009 (H1N1) oseltamivir resistant; test: microbe, parasite or virus in culture; format: cell-based; conditions: Influenza A virus, H1N1, MDCK, read-out: IC90, VYR Assay

| Compound | IC50 [1] | SI (CC50/IC50), Visual Assay [2] | IC50 [3] | SI (CC50/IC50), Neutral Red Uptake Assay [4] | IC90 [5] |
| --- | --- | --- | --- | --- | --- |
| Nc1ccn([C@@H]2O[C@H](CO)[C@@H](O)C2(F)F)c(=O)n1 [2’-deoxy-2’, 2’-difluorocytidine, reference compound] | 0.054 µM | >200 | 0.05 µM | >1900 | 0.03 µM |
| Nc1ccn([C@@H]2O[C@H](CO)[C@@H](O)[C@H]2F)c(=O)n1 [2’-deoxy-2’-fluorocytidine, 2'-deoxy-2'-fluorocytidine] | 7.8 µM | >48 | 2.1 µM | >12.8 | 6.3 µM |
